Test results reported in US20070059720A9 (priority 2004, published 2007).

Tests used:
Type in all cases: cell-based, human
ERK 1,2 MAPK = experiment: Immunoblot of phospho-MAPK in MCF-7 transfectants; settings: MKP3-overexpressing MCF-7 cells; 2 hours, 100 nM
Description: (§1) Cells grown in 100 mm dishes were starved in phenol red-free (PRF), serum-free MEM (Specialty Media, Phillipsburg, N.J.) for 48 hours, and were then treated for 2 hours with vehicle (ethanol), estrogen (100 nM, 20), or OHT (100 nM). After treatment, cells were rinsed twice with ice-cold phosphate-buffered saline (PBS) and were then lysed immediately with 200 μl of cell lysis buffer (20 mM Tris HCl, pH 7.4, 150 mM NaCl, 1 mM B-glycerophosphate, 1 mM sodium orthovanadate, and 10% glycerol plus 1:100 proteinase inhibitor cocktail III) (Calbiochem, LaJolla, Calif.) per 100 mm tissue culture. The cell lysates were cleared by centrifugation at 16,100×g for 10 minutes at 4° C. Protein concentration was determined with the BCA Protein Assay kit (Pierce, Rockfold, Ill.) according to the manufacturer's directions. Equal amount of cell extracts were resolved under denaturing conditions by electrophoresis in 8-10% polyacrylamide gels containing sodium dodecyl sulfate (SDS-PAGE), and transferred to nitrocellulose membranes by electroblotting (Schleicher & Schuell, Keene, NH). After blocking of the transferred nitrocellulose membrane with TBST (20 mM Tris pH 7.6, 150 mM NaCl, 0.1% Tween-20) supplemented with 5% non-fat milk for 1 hour at room temperature, the membrane was incubated with primary antibodies either for 1 hour at room temperature (anti-ERα, 1:100 dilution; anti-AIB1, 1:100 dilution; anti-ERK2, 1:500 dilution; anti-Cyclin D1,1:500 dilution; anti-PR, C-19, 1:200 dilution; anti-p190, 1:1000 dilution; anti-V5, 1:5000 dilution), or overnight at 4° C. (anti-phospho MAPK, 1:1000 dilution; anti-phosphor-Ser118-ERα; 1:1000 dilution; MAPK p42/44, 1:1000 dilution), incubated with secondary antibodies for 1 hour at room temperature and then developed with Enhanced Chemiluminescence Reagents (Amersham Pharmacia Biotech, Piscataway, N.J.).
MAPK activity is tightly regulated by phosphorylation and dephosphorylation. MKP3 participates in a bidirectional regulatory loop with ERK2 MAPK, whereby ERK2 substrate binding is associated with catalytic activation of MKP3, and activated MKP3 negatively regulates pERK2 (Camps et al., 1998). […] Immunoblot analysis with anti-V5 was used to detect ectopic MKP3 expression in the two MKP3 transfectants (FIG. 5A, top panel). FIGS. 5B and 5C provide quantitation of results in FIG. 5A.

[1] = tested on: progesterone receptor (PR) A and B forms; experiment: Immunoblot of PR-A and PR-B in MCF-7 transfectants
Description: as §1
As expected with two hours of estrogen treatment, no induction of the two PR isoforms were detected in either the control vector (Con 1 and 2), or in the MKP3-transfected cells (FIG. 11A). […]

MCF-7-MKP3 cells = experiment: Anchorage-independent soft agar colony formation, MKP3-overexpressing MCF-7 transfectants
Description: MCF-7 cells were originally obtained from Dr. Benita Katzenellebogen, but have been maintained in the inventors' laboratory for over 10 years (Fuqua et al., 2000). MCF-7 cells were maintained in Minimal Essential Medium (MEM, InVitrogen) supplemented with 5% fetal bovine serum (Summit Biotechnology, Fort Collins, Colo.), 200 U/ml penicillin, and 200 μg/ml streptomycin. Cells were incubated at 37° C. in 5% CO2. To generate MCF-7 cells stably overexpressing MKP3, 5 μg of the plasmid pcDNA3-MKP3-V5 (Furukawa et al., 2003) or empty vector (pcDNA3-His-V5, InVitrogen), were transfected into the cells using Fugene 6 reagent Roche Clinical Laboratories, Indianapolis, Ind.) in 100 mm tissue culture dishes following the manufacturer's protocol. Stable clones overexpressing MKP3 were selected as described (Fuqua et al., 2000), and positive clones were identified using immunoblot analysis with an anti-V5 antibody (1:5000 dilution)
Cells were starved for 2 days in PRF MEM (InVitrogen) supplemented with 5% fetal bovine serum (FBS, Summit Biotechnology, Fort Collins, Colo.), 6 ng/ml insulin, 200 units/ml penicillin, and 200 μg/ml streptomycin. Soft agar assays were performed in sixwell plates. Into each well, 1.5 ml of prewarmed (50° C.) 0.7% SeaPlaque agarose (FMC, Rockland, Me.) was added and dissolved in PRF MEM supplemented with 5% charcoal stripped FBS (Summit, Fort Collins, Colo.) to serve as the bottom layer, and allowed to solidify at 4° C. until to use. 0.5×10^4 cells as a single cell suspension were suspended in prewarmed (37° C.) of the same media, 4 ml of 0.5% SeaPlaque agarose was then added, and this suspension then plated as the top layer by adding it dropwise to the solidified bottom layer plates. Plates were cooled for 2 hours, and then transferred to a 37° C. humidified incubator. Two days after plating, media containing control vehicle, 1 nM estradiol, 100 nM 4-OH-Tam, 100 nM OHT plus 10 nM ICI, or 100 nM OHT plus 20 nM […] was added to the top cell layer, and the appropriate media was replaced every two days. After 14 days, the colonies were fixed, and the colony number of colonies >50 cells from quadruplicate assays were then counted. The data shown is the mean colony number of four plates, and is representative of two independent experiments.
In pancreatic cells, ectopic expression of MKP3 is reported to result in a suppression of cell growth (Fuqua et al., 2003). Thus, the growth characteristics of the MCF-7 stable MKP3 transfectants under different hormonal conditions were investigated using anchorageindependent soft agar assay (FIG. 4B).

ERα = experiment: Immunoblot of phospho-S118 ERα and total ERα in MCF-7 transfectants; settings: for total ERα protein level: control transfected and MKP3 overexpressing cells
Description: as §1

[2] = tested on: T47D cells overexpressing MTA2; experiment: Soft agar growth of MTA2-overexpressing T47D cells; settings: MTA2.5 and 2.8 clones compared to vector alone transfected cells
Source text: Metastasis associated protein 2 (MTA2), also known as PID, is contained in nucleosome remodeling and histone deacetylation (NuRD) complexes. Overexpression of MTA2 into T47D human breast cancer cells (MTA2.5 and 2.8 clones) increases the growth in soft agar in the absence of estrogen (C).

| SMILES | levels of pMAPK (ERK 1,2 MAPK) | PR-B levels ([1]; two MKP3 transfectants, not observed in control MCF-7 transfectants) | increase in number of soft agar colonies formed in the presence of Tam, MKP3-overexpressing transfectants compared to vector control cells (MCF-7-MKP3 cells; 100 nM 4-OH-Tam, two MKP3 clones, P<0.05) [fold] | phosphorylation at ERα serine 118 (ERα; MKP3 transfectants, 2 hours) | total ERα protein level (ERα) | response of soft agar growth [2] | induction of the two PR isoforms ([1]; two hours of treatment, control vector and MKP3-transfected cells) | estrogen-induced colony formation of MCF-7-MKP3 clones (MCF-7-MKP3 cells; 1 nM estradiol, versus vector control cells) |
| --- | --- | --- | --- | --- | --- | --- | --- | --- |
| CC/C(=C(\c1ccccc1)c1ccc(OCCN(C)C)cc1)c1ccccc1 [Tam, tamoxifen] | highest activation of MAPK | striking diminution | ~20 | highly induced | stabilization | unresponsive | – | – |
| C[C@]12CC[C@@H]3c4ccc(O)cc4CC[C@H]3[C@@H]1CC[C@@H]2O [E2, 17β-Estradiol] | lowest | – | – | – | Down regulation | unresponsive | no induction | equivalent to those obtained with vector control cells |
